Structures are written as SMILES.

This assay addresses T1, recombinant human Meningioma Expressed Antigen 5 (MGEA5), also referred to as O-GlcNAcase (OGA) (Homo sapiens, UniProt O60502).
T1 construct: Full length OGA enzyme was purchased at OriGene (cat #TP322411); purchased OriGene TP322411
T1 sequence (O60502 1-916): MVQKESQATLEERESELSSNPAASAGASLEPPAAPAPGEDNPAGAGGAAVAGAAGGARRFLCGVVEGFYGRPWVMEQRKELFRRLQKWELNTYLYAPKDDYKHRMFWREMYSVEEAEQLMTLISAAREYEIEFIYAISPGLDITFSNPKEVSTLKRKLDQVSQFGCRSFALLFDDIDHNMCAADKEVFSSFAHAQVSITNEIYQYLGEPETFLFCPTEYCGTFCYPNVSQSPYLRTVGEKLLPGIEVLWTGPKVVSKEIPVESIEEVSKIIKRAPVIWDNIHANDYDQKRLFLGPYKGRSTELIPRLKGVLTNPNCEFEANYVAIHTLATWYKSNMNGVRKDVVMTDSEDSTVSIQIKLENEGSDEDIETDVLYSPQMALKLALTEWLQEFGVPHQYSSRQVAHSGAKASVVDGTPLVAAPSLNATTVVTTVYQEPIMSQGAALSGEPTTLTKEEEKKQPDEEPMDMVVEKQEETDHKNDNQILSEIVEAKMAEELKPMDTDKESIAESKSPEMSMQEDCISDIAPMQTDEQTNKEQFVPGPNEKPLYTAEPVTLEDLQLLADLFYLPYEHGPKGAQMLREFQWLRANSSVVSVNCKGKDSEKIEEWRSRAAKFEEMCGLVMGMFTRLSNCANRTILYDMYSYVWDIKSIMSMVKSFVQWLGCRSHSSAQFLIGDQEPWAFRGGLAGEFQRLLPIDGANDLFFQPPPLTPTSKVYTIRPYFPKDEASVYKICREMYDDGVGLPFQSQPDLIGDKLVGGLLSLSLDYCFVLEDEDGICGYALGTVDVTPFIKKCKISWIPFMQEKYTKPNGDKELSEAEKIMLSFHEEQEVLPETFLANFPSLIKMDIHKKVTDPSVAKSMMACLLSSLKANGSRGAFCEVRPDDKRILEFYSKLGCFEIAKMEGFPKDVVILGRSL
Description: OGA biochemical assay (inhibition of FM-GlcNAc hydrolysis, fluorescence). As to conditions: for Emax: read-out: Enzymatic Emax (%); for IC50: read-out: Enzymatic hOGA, pIC50 (converted). In outline: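 Full-length OGA at 2 nM was pre-incubated 60 min at room temperature with compound, then FM-GlcNAc at 100 uM final was added in citrate/phosphate buffer pH 7.2 with 0.005% Tween-20. After 6 h at room temperature, carbonate pH 11.0 stopped the reaction. Fluorescence read at 485/538 nm; IC50 and Hill coefficient from curve fit against no-inhibitor and saturating-standard controls.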

Take `Cc1ncc(OC2CCN(C(C)c3nc4c(cc3F)CCO4)CC2)cn1` (centres unmarked) [Compound 95]: the Emax is 96% and the IC50 was 5.01 nM.
In the case of `Cc1cc(OC2CCN([C@H](C)c3nc4c(cc3F)OCCO4)CC2)cc(C)n1` (single isomer, unassigned) [Compound 148], the Emax is 98% and the IC50 was 6.31 nM.
On the same counts, the results for `Cc1cc(OC2CCN([C@@H](C)c3nc4nc(C)sc4cc3F)CC2)cc(C)n1` (single isomer, unassigned) [Compound 83] are 101% and 5.01 nM.
On to `Cc1cc(OC2CCN([C@H](C)c3nc4c(cc3F)CCO4)CC2)cc(C)n1` (single isomer, unassigned) [Compound 144], for which the Emax came out at 97% and the IC50 is 3.16 nM.

The term Emax denotes the size of the effect at its maximum, as opposed to the concentration needed.

(Values after patent US20210122763A1, “OGA INHIBITOR COMPOUNDS” (Janssen Pharmaceutica NV, priority 2018, published 2021).)
